Data published in the NIST ThermoML archive (doi:10.1007/s10765-015-1927-y).

Assays:
[1] = 303.15 K, 101 kPa, Liquid; for speed of sound: Frequency=1 MHz
[2] = xn = mol fraction of the nth substance listed; conditions: 303.15 K, 101 kPa, Liquid; for speed of sound: Frequency=1 MHz

CCCCOC(C)=O [butyl ethanoate]
[1]
Conditions	mass density [kg/m3]	speed of sound [m/s]	viscosity [mPa·s]
–	871.07	1170	0.638

CCCCOC(C)=O [butyl ethanoate] + ClC=C(Cl)Cl
[2], x2 = 0
Conditions	mass density [kg/m3]	speed of sound [m/s]	viscosity [mPa·s]
–	871.07	1170	0.638

CCOC(C)=O [ethyl acetate]
[1]
Conditions	mass density [kg/m3]	speed of sound [m/s]	viscosity [mPa·s]
–	888.75	1126	0.424

CCOC(C)=O [ethyl acetate] + ClC=C(Cl)Cl
[2], x2 = 0
Conditions	mass density [kg/m3]	speed of sound [m/s]	viscosity [mPa·s]
–	888.75	1126	0.424

CCCOC(C)=O [propyl ethanoate]
[1]
Conditions	mass density [kg/m3]	speed of sound [m/s]	viscosity [mPa·s]
–	876.55	1148	0.547

CCCOC(C)=O [propyl ethanoate] + ClC=C(Cl)Cl
[2], x2 = 0
Conditions	mass density [kg/m3]	speed of sound [m/s]	viscosity [mPa·s]
–	876.55	1148	0.547

ClC=C(Cl)Cl [trichloroethene]
[1]
Conditions	mass density [kg/m3]	speed of sound [m/s]	viscosity [mPa·s]
–	1450.9	1016	0.589

ClC=C(Cl)Cl [trichloroethene] + CCCCOC(C)=O
[2]
Conditions	mass density [kg/m3]	speed of sound [m/s]	viscosity [mPa·s]
x1 = 0.1739	944.38	1145	0.66
x1 = 0.25	979.14	1135	0.665
x1 = 0.3658	1035.81	1115	0.67
x1 = 0.4722	1092.05	1097	0.666
x1 = 0.5724	1149.11	1080	0.666
x1 = 0.6942	1224.71	1060	0.654
x1 = 0.7761	1279.91	1047	0.644
x1 = 0.9126	1380.34	1027	0.62
x1 = 1	1450.9	1016	0.589

ClC=C(Cl)Cl [trichloroethene] + CCCOC(C)=O
[2]
Conditions	mass density [kg/m3]	speed of sound [m/s]	viscosity [mPa·s]
x1 = 0.1419	942.22	1126	0.567
x1 = 0.2337	987.22	1112	0.578
x1 = 0.364	1054.63	1094	0.592
x1 = 0.4555	1104.47	1081	0.601
x1 = 0.5827	1177.08	1063	0.61
x1 = 0.6735	1231.75	1050	0.614
x1 = 0.7713	1293.35	1038	0.612
x1 = 0.8922	1374.05	1025	0.604
x1 = 1	1450.9	1016	0.589

ClC=C(Cl)Cl [trichloroethene] + CCOC(C)=O
[2]
Conditions	mass density [kg/m3]	speed of sound [m/s]	viscosity [mPa·s]
x1 = 0.1325	957.65	1105	0.451
x1 = 0.2099	998.68	1094	0.47
x1 = 0.3674	1083.99	1073	0.501
x1 = 0.4158	1110.76	1067	0.509
x1 = 0.5484	1185.16	1051	0.532
x1 = 0.6854	1263.95	1037	0.552
x1 = 0.8354	1352.1	1025	0.57
x1 = 0.8995	1390.34	1021	0.577
x1 = 1	1450.9	1016	0.589
